Laboratory results published in patent publication US5138069A (E. I. Du Pont de Nemours and Company, priority 1988, dated 1992).
Where a name gives a salt, the structure may show the parent alone. Read-outs that look alike come from different tables or passages of the source.

Tests used:
conscious dogs = test: Hypotensive effects in conscious dogs before and after furosemide; assay type: in vivo
Procedure: (§1) The hypotensive effects of 2-butyl-4-chloro-1-[2'-(1H-tetrazol-5-yl)biphenyl-4-yl)methyl]-5-hydroxymethylimidazole sodium salt were compared before and after furosemide administration to conscious dogs. […] Plasma renin activity (PRA) in these animals was 1.5±0.5 ng AI/ml/hr. Four days later, furosemide was given to three of these dogs at 10 mg/kg im at 18 and 2 hours before the experiment and increased PRA to 19.9±7.2 ng AI/ml/hr. […] Thus a combined therapy of these two classes of drugs will be likely to increase the response rate to therapy among hypertensive patients.

pressor response to AII = test: Inhibition of the pressor response to AII in conscious dogs; assay type: in vivo
Procedure: as §1

Renal Hypertensive Rats = test: Antihypertensive effects in renal hypertensive rats; assay type: in vivo; conditions: Rattus norvegicus; for minimal effective dose at 3 mg/kg / minimal effective dose at 30 mg/kg: Table 26; for minimal effective dose at 3 mg/kg / minimal effective dose at 10 mg/kg: intravenous; for minimal effective dose at 30 mg/kg: oral; for minimal effective dose at 10 mg/kg: Table 25, 10 mg/kg or less
How it was run: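 Renal hypertensive rats (renin-driven AII elevation) dosed orally at 100 mg/kg and/or i.v. via jugular cannula at 10 mg/kg; a second set used 30 mg/kg oral and 3 mg/kg i.v. Arterial pressure recorded continuously via carotid cannula and compared with pretreatment levels.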

AII receptor = test: Angiotensin II receptor binding (displacement of 3H-AII); conditions: read-out: Angiotensin II Receptor Binding IC50, rat adrenal cortical microsomes, 2 nM 3H-AII, 1 hour, room temperature
How it was run: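 The receptor source was rat adrenal cortical microsomes in Tris buffer, incubated with 2 nM ³H-AII plus or minus test compound for 1 h at room temperature. Bound and free ligand were separated by rapid filtration on glass-fibre filters. Filter-bound ³H-AII was counted by scintillation.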

[1] = system: renal vasoconstrictor effect of NSAID; conditions: cited from earlier work
AII = conditions: cited from earlier work

| Compound | IC50 (AII receptor; Table 26) [nM] | minimal effective dose at 3 mg/kg (Renal Hypertensive Rats) [mg/kg] | minimal effective dose at 30 mg/kg (Renal Hypertensive Rats) [mg/kg] | further results |
| --- | --- | --- | --- | --- |
| CCCCc1nc(Cl)c(CO)n1Cc1ccc(-c2ccccc2-c2nnn[nH]2)cc1 | – | – | – | blood pressure, after furosemide (conscious dogs; conscious dogs, cumulative iv 0.3 to 3 mg/kg after furosemide 10 mg/kg im at 18 and 2 hours before): caused a significant decrease in blood pressure in a dose-dependent manner; blood pressure, before furosemide (conscious dogs; normotensive conscious dogs, cumulative iv 0.3 to 3 mg/kg, n=4): did not lower blood pressure; inhibition of pressor response to AII, before furosemide (pressor response to AII; cumulative iv 0.3 to 3 mg/kg, AII 0.1 μg/kg iv, 10 min post dose): effective in inhibiting the pressor response to AII; inhibition of pressor response to AII, after furosemide (pressor response to AII; iv, after furosemide 10 mg/kg im): inhibited the pressor response to AII at the two higher doses |
| CCCCc1nc(Cl)c(CO)n1-c1ccc(NC(=O)c2ccccc2NS(=O)(=O)C(F)(F)F)cc1 [Example 325, 2-n-Butyl-4-chloro-5-hydroxymethyl-1-[4-((N-trifluoromethanesulfonyl)-anthranilamido)phenyl]imidazole] | – | – | – | minimal effective dose at 10 mg/kg (Renal Hypertensive Rats): < 10 mg/kg; IC50 (AII receptor; Table 25): 730 nM |
| CCCCc1ncc(CO)n1-c1ccc(NC(=O)c2ccccc2NS(=O)(=O)C(F)(F)F)cc1 [Example 326, 2-n-butyl-5-hydroxymethyl-1-[4-((N-trifluoromethanesulfonyl)anthranilamido)phenyl]imidazole] | – | – | – | minimal effective dose at 10 mg/kg (Renal Hypertensive Rats): < 10 mg/kg; IC50 (AII receptor; Table 25): 790 nM |
| CCCCc1nc(Cl)c(C=NNS(=O)(=O)c2ccccc2)n1Cc1ccc(-c2ccccc2-c2nnn[nH]2)cc1 [Example 327, 2-n-Butyl-4-chloro-1-[(2'-(1H-tetrazol-5-yl)biphenyl-4-yl)methyl]-imidazole-5-carboxaldehyde, benzenesulfonylhydrazone] | 660 | > 3 | > 30 | – |
| CCCCc1nc(Cl)c(C=NNC2=NCCN2)n1Cc1ccc(-c2ccccc2-c2nnn[nH]2)cc1 [Example 327A] | 290 | < 3 | < 30 | – |
| CCCCc1nc(Cl)c(C=NNC2=NCCN2)n1Cc1cccc(-c2ccccc2-c2nnn[nH]2)c1 [Example 327D] | 5200 | > 3 | > 30 | – |
| CCCCc1nc(Cl)c(CO)n1Cc1ccc(-c2c(C#N)cccc2-c2nnn[nH]2)cc1 [Example 343, 2-n-Butyl-4-chloro-1-[(2'-cyano-6'-(1H-tetrazol-5-yl)biphenyl-4-yl)methyl]-5-hydroxymethylimidazole] | 510 | < 3 | > 30 | – |
| CCCCc1nc(Cl)c(-c2nnn[nH]2)n1Cc1ccc(-c2ccccc2-c2nnn[nH]2)cc1 [Example 344, 2-n-Butyl-4-chloro-5-(1H-tetrazol-5-yl)-1-[(2'-(1H-tetrazol-5-yl)biphenyl-4-yl)methyl]-imidazole] | 160 | < 3 | < 30 | – |
| CCCCc1nc(Cl)c(CN2CCN(c3ccccc3OC)CC2)n1Cc1ccc(-c2ccccc2C(=O)O)cc1 [Example 346, 2-n-Butyl-1-[(2'-carboxybiphenyl-4-yl)methyl]-4-chloro-5-[(1-(2-methoxyphenyl)piperazin-4-yl)methyl]imidazole] | – | – | – | minimal effective dose at 10 mg/kg (Renal Hypertensive Rats): < 10 mg/kg; IC50 (AII receptor; Table 25): 740 nM |
| CCCCc1nc(Cl)c(C(=O)N2CCN(c3ccccc3OC)CC2)n1Cc1ccc(-c2ccccc2-c2nnn[nH]2)cc1 [Example 347, 2-n-Butyl-4-chloro-5-[4-(2-methoxyphenyl)piperazin-1-ylcarbonyl]-1-[(2'-(1H-tetrazol-5-yl)biphenyl-4-yl)methyl]imidazole] | 200 | < 3 | < 30 | – |
| CCCCc1nc(C(=O)N2CCN(c3ccccc3OC)CC2)c(Cl)n1Cc1ccc(-c2ccccc2-c2nnn[nH]2)cc1 [Example 348] | 1300 | < 3 | > 30 | – |
| CNCC(=O)N[C@@H](CCCN=C(N)N)C(=O)N[C@H](C(=O)N[C@@H](Cc1ccc(O)cc1)C(=O)N[C@H](C(=O)N[C@@H](Cc1cnc[nH]1)C(=O)N1CCC[C@H]1C(=O)N[C@@H](C)C(=O)O)C(C)C)C(C)C [Saralasin, [Sar^1, Ala^8] AII] | – | – | – | effect on renal vasoconstrictor effect of indomethacin and meclofenamate ([1]; dogs): inhibit the renal vasoconstrictor effect of indomethacin and meclofenamate in dogs; antagonism of the actions of AII (AII; Pals et al. 1971, pithed rats): one of the most potent competitive antagonists of the actions of AII; arterial pressure (AII; mammals and man, elevated pressure dependent on circulating AII): lower arterial pressure in mammals and man; oral efficacy (AII; oral doses): oral doses being ineffective; pressor effects (AII; when the pressure is not sustained by AII): generally elicits pressor effects when the pressure is not sustained by AII |
| C[C@H](CS)C(=O)N1CCC[C@H]1C(=O)O [captopril, Captopril] | – | – | – | effect on renal vasoconstrictor effect of indomethacin ([1]; dogs with non-hypotensive hemorrhage): reverse the renal vasoconstrictor effect of indomethacin in dogs |

Second part, led by results:

| IC50 (AII receptor; Table 26) [nM] | Compound | minimal effective dose at 3 mg/kg (Renal Hypertensive Rats) [mg/kg] | minimal effective dose at 30 mg/kg (Renal Hypertensive Rats) [mg/kg] | further results |
| --- | --- | --- | --- | --- |
| 880 | CCCc1nc(C)c(C=O)n1Cc1ccc(-c2ccccc2C(=O)O)cc1 [Example 320, 1-[(2'-Carboxybiphenyl-4-yl)methyl]-4-methyl-2-propylimidazole-5-carboxaldehyde] | < 3 | < 30 | – |
| 1800 | CCCc1nc(C)c(CO)n1Cc1ccc(-c2ccccc2C(=O)O)cc1 [Example 321, 1-[(2'-Carboxybiphenyl-4-yl)methyl]-5-hydroxymethyl-4-methyl-2-propylimidazole.hydrochloride] | < 3 | > 30 | – |
| 6700 | CCCc1nc(C(=O)O)c(C(=O)O)n1Cc1ccc(-c2ccccc2C(=O)O)cc1 [Example 328] | < 3 | < 30 | – |
| 76 | CCCc1nc(C(=O)O)c(C(=O)O)n1Cc1ccc(-c2ccccc2-c2nnn[nH]2)cc1 [Example 329] | < 3 | < 30 | – |
| 51 | CCCc1nc(C(=O)OC)c(C(=O)OC)n1Cc1ccc(-c2ccccc2-c2nnn[nH]2)cc1 [Example 333, 4,5-Dicarbomethoxy-2-n-propyl-1-[(2'-(1H-tetrazol-5-yl)biphenyl-4-yl)methyl]imidazole] | < 3 | < 30 | – |
| 15 | CCCc1nc(C(=O)OC)c(CO)n1Cc1ccc(-c2ccccc2-c2nnn[nH]2)cc1 [Example 334, 4-Carbomethoxy-5-hydroxymethyl-2-n-propyl-1-[(2'-(1H-tetrazol-5-yl)biphenyl)-methyl]imidazole] | < 3 | < 30 | – |
| 260 | CCCc1nc(C(=O)O)c(CO)n1Cc1ccc(-c2ccccc2-c2nnn[nH]2)cc1 [Example 335, 5-Hydroxymethyl-2-n-propyl-1-[(2'-(1H-tetrazol-5-yl)biphenyl)methyl]-imidazole-4-carboxylic acid] | < 3 | < 30 | – |
| 280 | CCCCc1nc(Cl)c(CO)n1Cc1ccc(-c2ccccc2-c2[nH]nnc2C#N)cc1 [Example 336] | > 3 | > 30 | – |
| 760 | CCCCc1nc(CO)c(Cl)n1Cc1ccc(-c2ccccc2-c2nn[nH]c2C#N)cc1 [Example 337, 2-n-Butyl-5-chloro-1-[(2'-(5-cyano-1,2,3-triazol-4-yl)biphenyl-4-yl)methyl]-4-hydroxymethylimidazole] | < 3 | > 30 | – |
| 260 | CCCCc1nc(Cl)c(CO)n1Cc1ccc(-c2ccccc2-c2nn[nH]c2C(=O)OC)cc1 [Example 338, 2-n-Butyl-4-chloro-1-[(2'-(5-carbomethoxy-1,2,3-triazol-4-yl)biphenyl-4-yl)methyl]-5-hydroxymethylimidazole] | > 3 | > 30 | – |
| 1700 | CCCCc1nc(CO)c(Cl)n1Cc1ccc(-c2ccccc2-c2[nH]nnc2C(=O)OC)cc1 [Example 339, 2-n-Butyl-5-chloro-1-[(2'-(5-carbomethoxy-1,2,3-triazol-4-yl)biphenyl-4-yl)-methyl]-5-hydroxymethylimidazole] | < 3 | < 30 | – |
| 370 | CCCCc1nc(Cl)c(CO)n1Cc1ccc(-c2ccccc2-c2n[nH]c(C(F)(F)F)n2)cc1 [Example 340, 2-n-Butyl-4-chloro-5-hydroxymethyl-1-[(2'-(5-trifluoromethyl-1,2,4-triazol-3-yl)biphenyl-4-yl)methyl]imidazole] | < 3 | < 30 | – |
| 1100 | CCCCc1nc(Cl)c(-c2[nH]nnc2C(=O)O)n1Cc1ccc(-c2ccccc2-c2nnn[nH]2)cc1 [Example 345, 2-n-Butyl-5-(4-carboxy-1,2,3-triazol-5-yl)-4-chloro-1-[(2'-(1H-tetrazol-5-yl)biphenyl-4-yl)methyl]imidazole] | < 3 | – | – |
